From article PMC8073719, “Biochemical and Biophysical Characterization of Recombinant Human 3-Phosphoglycerate Dehydrogenase” (International Journal of Molecular Sciences, 2021)
Values joined by “and” are separate entries in the source; they are usually repeats but may differ in a detail not shown here. Identical values can stand only once. “Also recorded” adds a separate entry of the source. Like-named read-outs stand apart in the source and are kept apart here. Each block holds one compound with its values, some of them ahead of it.

What was measured:
hPHGDH [1] = target: T1, hPHGDH (Homo sapiens, UniProt O43175); experiment: Effect of salts, phosphate and serine synthesis metabolites on hPHGDH activity (hydrazine assay); format: biochemical; set-up: His-tagged full-length hPHGDH was expressed in BL21(DE3) E. coli cells; made in house; host or cells: E. coli BL21(DE3); conditions: for decrease of hPHGDH activity: […] 3PG
T1 sequence (O43175 1-533): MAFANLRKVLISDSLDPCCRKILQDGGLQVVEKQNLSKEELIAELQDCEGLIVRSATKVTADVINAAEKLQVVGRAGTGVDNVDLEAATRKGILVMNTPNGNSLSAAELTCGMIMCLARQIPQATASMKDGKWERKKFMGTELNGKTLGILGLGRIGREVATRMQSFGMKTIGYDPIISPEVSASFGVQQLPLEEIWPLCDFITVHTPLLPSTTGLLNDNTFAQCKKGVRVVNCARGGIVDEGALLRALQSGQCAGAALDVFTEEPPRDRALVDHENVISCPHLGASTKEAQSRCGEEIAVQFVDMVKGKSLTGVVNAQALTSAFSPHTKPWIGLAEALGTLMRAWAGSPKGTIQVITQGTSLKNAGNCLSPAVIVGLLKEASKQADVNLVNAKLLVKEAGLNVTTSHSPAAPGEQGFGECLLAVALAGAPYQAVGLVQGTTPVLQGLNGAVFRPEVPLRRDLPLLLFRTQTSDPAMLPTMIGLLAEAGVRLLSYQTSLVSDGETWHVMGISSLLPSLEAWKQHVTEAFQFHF
Source text: The effects of KCl, NaCl, MgCl2 and CaCl2 and of pH and temperature on enzyme activity and stability were investigated using the hydrazine assay. […] The dependence of activity on pH was fitted using an equation for three pKa values, according to [44], providing apparent values unrelated to microscopic ones.

hPHGDH [2] = target: T1, hPHGDH; experiment: Limited proteolysis with trypsin, SDS-PAGE; set-up: His-tagged full-length hPHGDH was expressed in BL21(DE3) E. coli cells; made in house; host or cells: E. coli BL21(DE3); conditions: 5% (w/w) trypsin; 250 mM potassium phosphate, 500 mM sodium tartrate or 0.1 mM NCT-503
Method: hPHGDH at 0.4 mg/mL was incubated at 25 °C in 50 mM Hepes pH 7.5, 100 mM NaCl, 10% (v/v) glycerol, 1 mM EDTA and 5 mM 2-mercaptoethanol in the presence of 5% (w/w) trypsin (Roche, Basel, Switzerland). […] At different times (0, 30, 60, 120 and 240 min), 8 µg of protein was diluted in SDS-sample buffer, heated at 95 °C for 5 min and analyzed by SDS-PAGE.

hPHGDH [3] = target: T1, hPHGDH; experiment: hPHGDH reverse reaction kinetics (decrease in NADH fluorescence at 450 nm); conditions: reverse reaction, 5 mM NADH
Source text: (§1) The latter assay was used to determine the apparent kinetic parameters on alternative substrates.

E. coli PHGDH = conditions: reverse reaction; cited from earlier work
hPHGDH [4] = target: T1, hPHGDH; set-up: His-tagged full-length hPHGDH was expressed in BL21(DE3) E. coli cells; made in house; host or cells: E. coli BL21(DE3); conditions: cited from earlier work
hPHGDH [5] = target: T1, hPHGDH; experiment: hPHGDH forward reaction kinetics (PSAT-coupled or hydrazine assay, NADH fluorescence); format: biochemical; set-up: His-tagged full-length hPHGDH was expressed in BL21(DE3) E. coli cells; made in house; host or cells: E. coli BL21(DE3)
Method: PSAT was added to drive the reaction and to avoid product inhibition of hPHGDH.
as §1

hPHGDH [6] = target: T1, hPHGDH; experiment: Ligand binding by quenching of protein fluorescence at 330 nm
Method: Protein fluorescence spectra were measured at 0.06–0.1 mg/mL protein concentration in 10 mM potassium phosphate, pH 7.0, 15 °C; spectra were recorded using a Jasco FP-750 instrument and were corrected for the buffer contribution. Protein fluorescence spectra were recorded between 300 and 450 nm, with excitation at 280 and 298 nm.
All recorded spectra were subtracted for the contribution of the ligand (added to the buffer only) and were corrected for dilution at every addition. […] In all cases, Kd values were determined by fitting the data to a hyperbolic function.

hPHGDH [7] = target: T1, hPHGDH; experiment: Temperature-ramp unfolding (melting temperature) with cofactors; format: binding; set-up: His-tagged full-length hPHGDH was expressed in BL21(DE3) E. coli cells; made in house; host or cells: E. coli BL21(DE3)
Method: Temperature-ramp experiments were performed in 10 mM potassium phosphate, pH 7.0. For this, a software-driven, Peltier-equipped fluorimeter was used to measure the protein fluorescence change at 330 nm or a CD spectropolarimeter to follow the CD signal at 280 nm in order to reproduce a temperature gradient (0.5 °C/min) [31].

hPHGDH [8] = target: T1, hPHGDH; experiment: Inhibition of hPHGDH activity by inhibitors (hydrazine assay); format: biochemical; set-up: His-tagged full-length hPHGDH was expressed in BL21(DE3) E. coli cells; made in house; host or cells: E. coli BL21(DE3); conditions: kinetics on 3PG at increasing inhibitor concentration
[9] = substrate varied, […] NAD+, hydrazine assay, Figure S3B,D-F

Compound: [Cl-].[Na+] [NaCl]
initial activity lost (hPHGDH [1]; at >20 mM NaCl): 30%

Compound: O=C(O)CCC(=O)C(=O)O [α-Ketoglutarate]
Ki (hPHGDH [3]; Ki (substrate inhibition), 37 °C, pH 7.0): 13300 µM | Ki (hPHGDH [3]; Ki of fit with substrate inhibition, Figure S4A,C,D): 13300 µM | Km (E. coli PHGDH): 500 µM | Km (hPHGDH [4]; commercial enzyme preparation): ~10000 µM

Compound: O=C(O)[C@@H](O)[C@H](O)C(=O)O [D-Tartrate]
maximal rate of Michaelis–Menten fit (hPHGDH [5]; [9]): 0.4125

Compound: Cc1cc(C)nc(NC(=S)N2CCN(Cc3ccc(C(F)(F)F)cc3)CC2)c1 [NCT-503]
mechanism of inhibition (hPHGDH [8]): noncompetitive inhibitor; also recorded: noncompetitive inhibition mechanism | proteolysis of the full-length enzyme (hPHGDH [2]): to a lesser extent

Compound: O=C(O)C(O)COP(=O)(O)O [3PG, D-3-phosphoglycerate]
maximal rate of Michaelis–Menten fit (numerator of y = a x/(b + x)) (hPHGDH [5]; 3PG varied, 120 µM NAD+, PSAT-coupled assay, Figure S3A): 1.282 | maximal rate of Michaelis–Menten fit (hPHGDH [5]; 3PG varied, 120 µM NAD+, hydrazine assay, Figure S3A): 1.5348 | kcat (hPHGDH [5]; forward reaction, substrate varied, 120 µM NAD^+, PSAT-coupled (1) and hydrazine (2) assays, 37 °C, 25 mM Hepes pH 7.0, per monomer): 1.5 s⁻¹ | Km (hPHGDH [5]; forward reaction, substrate varied, 120 µM NAD^+, PSAT-coupled (1) and hydrazine (2) assays, 37 °C, pH 7.0): 260 µM | maximal rate of Michaelis–Menten fit (hPHGDH [5]; [9]): 2.972 | Hill coefficient n (hPHGDH [4]; negative cooperativity in a previous work): 0.63–0.67

Compound: [Cl-].[K+] [KCl]
decrease of hPHGDH activity (hPHGDH [1]; at 10 mM KCl, […] NAD+): 40% | initial activity lost (hPHGDH [1]; at ≥10 mM KCl): 30%

Compound: O=C(O)CC(=O)C(=O)O [Oxaloacetate]
maximal rate of fit with substrate inhibition (hPHGDH [3]; Figure S4A,C,D): 1.7591

Compound: O=C([O-])C(O)C(O)C(=O)[O-].[Na+].[Na+] (centres unmarked) [sodium tartrate]
proteolysis of the full-length enzyme (hPHGDH [2]): hampered

Next, values leading:

activity lost (hPHGDH [1]; at 1 mM potassium phosphate): 30% | effect on enzymatic activity (hPHGDH [1]; at 400 mM phosphate): fully abrogated | proteolysis of the full-length enzyme (hPHGDH [2]): hampered
Compound: O=P(O)(O)O [potassium phosphate]

maximal rate of Michaelis–Menten fit (hPHGDH [5]; [9]): 0.4351
Compound: O=C(O)C[C@@H](O)C(=O)O [D-Malate]

Kd (hPHGDH [6]; Kd (NAD^+; main phase of NADH binding), discussion value): ~130 µM | Kd (hPHGDH [6]; Kd, quenching of protein fluorescence at 15 °C, 1 μM enzyme, monophasic): 130 µM | maximal rate of Michaelis–Menten fit (hPHGDH [5]; NAD+ varied, 2.5 mM 3PG, PSAT-coupled assay, Figure S3C): 2.039 | maximal rate of Michaelis–Menten fit (hPHGDH [5]; NAD+ varied, 2.5 mM 3PG, hydrazine assay, Figure S3C): 2.4118 | Tm, circular dichroism signal at 280 nm (hPHGDH [7]; 120 µM NAD^+ or 100 µM NADH, protein alone 47.5): 48.2 °C | Tm, CD (220 nm) (hPHGDH [7]; +120 μM NAD^+ or +100 μM NADH, hPHGDH alone 47.2 ± 0.5): 48.2 ± 1.7 °C | Tm, Fluorescence (330 nm) (hPHGDH [7]; +120 μM NAD^+ or +100 μM NADH, hPHGDH alone 48.4 ± 2.1): 52.4 °C and 52.4 ± 0.4 °C
Compound: NC(=O)c1ccc[n+]([C@@H]2O[C@H](COP(=O)(O)OP(=O)(O)OC[C@H]3O[C@@H](n4cnc5c(N)ncnc54)[C@H](O)[C@@H]3O)[C@@H](O)[C@H]2O)c1 [NAD^+]

maximal rate of Michaelis–Menten fit (hPHGDH [5]; [9]): 5.407
Compound: C[C@@H](O)C(=O)O [D-Lactate]

decrease of hPHGDH activity (hPHGDH [1]; at 250 mM D-serine): ~ 25%
Compound: N[C@H](CO)C(=O)O [D-serine]

maximal rate of Michaelis–Menten fit (hPHGDH [5]; [9]): 2.527
Compound: CC(O)CC(=O)O [D-3-Hydroxybutyrate]
